Measured values as given in patent US12213957B2, “Use of aminoacetonitrile compounds for the treatment of infection and disease” (PITNEY PHARMACEUTICALS PTY LIMITED, priority 2020, dated 2025).
“And” between values parts separate entries of the source, which are not always exact repeats. Equal values may be shown once. Read-outs that look alike come from different tables or passages of the source.

Columns and labels:
[1] = Blood plasma levels in pet dogs of the veterinary trial; type: in vivo, dog; conditions: pet dogs, monepantel 179 mg/kg bw daily; one value per dog
Experimental: In a Phase 2 veterinary clinical trial, monepantel was administered as tablets daily to six pet dog patients (dog identification numbers: 001-001, 001-002, 001-003, 003-001, 004-002 and 004-003) with treatment naïve B cell lymphoma at a target dose of 179 mg/kg bw. Superficial tumour lesions were measured with calipers, while lesions within the body were assessed by X-Ray, ultrasound, computer tomography (CT) and/or physical palpitation. Baseline Day 0 (D0) predose caliper, X-Ray, ultrasound and CT measurements where available as well as a complete physical examination were recorded.
An inverse correlation between RECIST1.1 response and blood plasma levels of monepantel and monepantel sulfone was evident. The one dog (003-001) that achieved a partial response, recorded monepantel and […] of 0.1 and 6.7 μM, respectively.

[2] = Blood plasma levels in human patients; type: in vivo; conditions: monepantel as Zolvix 5 mg/kg bw daily
Experimental: In a Phase 1 b clinical trial, monepantel administered as Zolvix daily to four human patients (PA02, PA04, PA06 and PA07) at 5 mg/kg bw provided an anticancer effect by computerised tomography (CT) scanning according to RECIST1.1 criteria. […] Evidence of mTOR pathway signalling inhibition in these patients was supported by the finding of decreased eurkaryotic translation initiation factor 4E-binding protein 1 (EIF-4EBP1) phosphorylation levels from the preparations of PBMCs from PA02, PA04 and PA06 (FIG. 1B). EIF-4EIBP1 phosphorylation levels were not assayed from preparations of PBMCs from PA07.
Blood plasma monepantel and monepantel sulfone levels of all four patients were recorded at intervals throughout treatment (Table 2).

SARS-CoV-2 [3] = type: cell-based; conditions: 40 μM and 8 μM compared to 0.064 μM, p<0.001
SARS-CoV-2 [4] = type: cell-based
SARS-CoV-2 [5] = type: cell-based; conditions: Calu-3 human cells, concentrations from 3.00 μM down to 0.013 μM
[6] = test system: VERO cells infected with SARS-CoV-2; type: cell-based; conditions: approximately 10 μM MPLS
CHO cells = conditions: no virus, read-out: CHO and cell 1050 values for MPLS treatment alone; cited from earlier work

C[C@](C#N)(COc1cc(C#N)ccc1C(F)(F)F)NC(=O)c1ccc(S(=O)(=O)C(F)(F)F)cc1 [MPLS, monepantel sulfone]
Blood plasma Monepantel sulfone Day 24 [1]: 26.1 µM | Blood plasma level of monepantel sulfone, Average ([2]; 0.25 h, average of patients): 0.00 ∞M | Blood plasma level of monepantel sulfone ([2]; 0.25 h, individual patients): 0 ng/ml (3×) and 5.4 ng/ml | Blood plasma level of monepantel sulfone, Average ([2]; 0.5 h, average of patients): 0.05 ∞M | Blood plasma level of monepantel sulfone ([2]; 0.5 h, individual patients): 8.63 ng/mL and 37.5 ng/mL and 32.1 ng/mL and 13.1 ng/mL | Blood plasma level of monepantel sulfone, Average ([2]; 1 h, average of patients): 0.29 ∞M | Blood plasma level of monepantel sulfone ([2]; 1 h, individual patients): 65.5 ng/mL and 152 ng/mL and 252 ng/mL and 125 ng/mL | Blood plasma level of monepantel sulfone, Average ([2]; 2 h, average of patients): 0.86 ∞M | Blood plasma level of monepantel sulfone ([2]; 2 h, individual patients): 266 ng/mL and 482 ng/mL and 639 ng/mL and 360 ng/mL | Blood plasma level of monepantel sulfone, Average ([2]; 4 h, average of patients): 1.77 ∞M | Blood plasma level of monepantel sulfone ([2]; 4 h, individual patients): 1050 ng/mL and 663 ng/mL and 1140 ng/mL | Blood plasma level of monepantel sulfone, Average ([2]; 8 h, average of patients): 1.13 ∞M | Blood plasma level of monepantel sulfone ([2]; 8 h, individual patients): 637 ng/mL and 398 ng/mL and 689 ng/mL | Blood plasma level of monepantel sulfone, Average ([2]; 12 h, average of patients): 0.68 ∞M | Blood plasma level of monepantel sulfone ([2]; 12 h, individual patients): 276 ng/mL and 348 ng/mL and 351 ng/mL | Blood plasma level of monepantel sulfone, Average ([2]; 24 h, average of patients): 0.45 ∞M | Blood plasma level of monepantel sulfone ([2]; 24 h, individual patients): 179 ng/mL and 258 ng/mL and 214 ng/mL | Blood plasma level of monepantel sulfone, Average ([2]; pre-dose D3, average of patients): 267.8 ng/ml and 0.53 ∞M | Blood plasma level of monepantel sulfone ([2]; pre-dose D3, individual patients): 269 ng/mL and 240 ng/mL and 285 ng/mL and 277 ng/mL | Blood plasma level of monepantel sulfone, Average ([2]; pre-dose D4, average of patients): 272.3 ng/ml and 0.54 ∞M | Blood plasma level of monepantel sulfone ([2]; pre-dose D4, individual patients): 291 ng/ml (2×) and 231 ng/ml and 276 ng/ml | Blood plasma level of monepantel sulfone, Average ([2]; pre-dose D5, average of patients): 238.3 ng/ml and 0.47 ∞M | Blood plasma level of monepantel sulfone ([2]; pre-dose D5, individual patients): 233 ng/mL and 229 ng/mL and 250 ng/mL and 241 ng/mL | Blood plasma level of monepantel sulfone, Average ([2]; pre-dose D6, average of patients): 214.3 ng/ml and 0.42 ∞M | Blood plasma level of monepantel sulfone ([2]; pre-dose D6, individual patients): 232 ng/mL and 205 ng/mL and 216 ng/mL and 204 ng/mL | Blood plasma level of monepantel sulfone, Average ([2]; pre-dose D7, average of patients): 205.0 ng/ml and 10.41 ∞M | Blood plasma level of monepantel sulfone ([2]; pre-dose D7, individual patients): 215 ng/mL and 188 ng/mL and 235 ng/mL and 182 ng/mL | Blood plasma level of monepantel sulfone, Average ([2]; pre-dose D14, average of patients): 148.0 ng/ml and 0.29 ∞M | Blood plasma level of monepantel sulfone ([2]; pre-dose D14, individual patients): 158 ng/mL and 131 ng/mL and 154 ng/mL and 149 ng/mL | Blood plasma level of monepantel sulfone, Average ([2]; pre-dose D21, average of patients): 147.0 ng/ml and 0.29 ∞M | Blood plasma level of monepantel sulfone ([2]; pre-dose D21, individual patients): 157 ng/mL and 146 ng/mL and 138 ng/mL | Blood plasma level of monepantel sulfone, Average ([2]; pre-dose D28, average of patients): 154.3 ng/ml and 0.31 ∞M | Blood plasma level of monepantel sulfone ([2]; pre-dose D28, individual patients): 180 ng/mL and 162 ng/mL and 121 ng/mL | concentration at 0.25 h ([2]; plasma, oral, 5 mg/kg bw, 0.25 h, average of patients, read-out: Blood plasma level of monepantel sulfone, Average): 1.4 ng/mL | concentration at 0.5 h ([2]; plasma, oral, 5 mg/kg bw, 0.5 h, average of patients, read-out: Blood plasma level of monepantel sulfone, Average): 22.8 ng/mL | concentration at 1 h ([2]; plasma, oral, 5 mg/kg bw, 1 h, average of patients, read-out: Blood plasma level of monepantel sulfone, Average): 149 ng/mL | concentration at 2 h ([2]; plasma, oral, 5 mg/kg bw, 2 h, average of patients, read-out: Blood plasma level of monepantel sulfone, Average): 437 ng/mL | concentration at 4 h ([2]; plasma, oral, 5 mg/kg bw, 4 h, average of patients, read-out: Blood plasma level of monepantel sulfone, Average): 896 ng/mL | concentration at 4 h ([2]; plasma, oral, 5 mg/kg bw, 4 h, individual patients, read-out: Blood plasma level of monepantel sulfone): 732 ng/mL | concentration at 8 h ([2]; plasma, oral, 5 mg/kg bw, 8 h, average of patients, read-out: Blood plasma level of monepantel sulfone, Average): 572 ng/mL | concentration at 8 h ([2]; plasma, oral, 5 mg/kg bw, 8 h, individual patients, read-out: Blood plasma level of monepantel sulfone): 565 ng/mL | concentration at 12 h ([2]; plasma, oral, 5 mg/kg bw, 12 h, average of patients, read-out: Blood plasma level of monepantel sulfone, Average): 346 ng/mL | concentration at 12 h ([2]; plasma, oral, 5 mg/kg bw, 12 h, individual patients, read-out: Blood plasma level of monepantel sulfone): 409 ng/mL | concentration at 24 h ([2]; plasma, oral, 5 mg/kg bw, 24 h, average of patients, read-out: Blood plasma level of monepantel sulfone, Average): 226 ng/mL | concentration at 24 h ([2]; plasma, oral, 5 mg/kg bw, 24 h, individual patients, read-out: Blood plasma level of monepantel sulfone): 254 ng/mL | SARS-CoV-2 RNA concentration in the media (qPCR) (SARS-CoV-2 [3]): significantly decreased | SARS-CoV-2 infectivity (TCID50, repeat experiment) compared to no treatment (SARS-CoV-2 [4]; MPLS 11.11 μM (highest concentration), VERO cells): significantly reduces SARS-CoV-2 infectivity | pathogenicity of VERO cell culture media following infection (TCID50) (SARS-CoV-2 [4]; MPLS 8 and 40 μM, strong trend): reduce the pathogenicity | SARS-CoV-2 infectivity (TCID50) (SARS-CoV-2 [5]): reduced SARS-CoV-2 infectivity | protection against cell death following infection with SARS-CoV-2 [6]: almost completely protected VERO cell against cell death | toxic effect upon VERO cells infected with SARS-CoV-2 (LDH) (VERO cells): minimal toxic effect | toxicity caused by SARS-CoV-2 (VERO cells): appeared to increase toxicity | toxicity of VERO cells to SARS-CoV-2 infection (VERO cells): may slightly increase toxicity | toxicity to VERO cells (VERO cells): no signs of toxicity | toxicity to uninfected VERO cells (VERO cells): some toxicity | SARS-CoV-2 toxicity (VERO cells; African green monkey): does not apparently increase SARS-CoV-2 toxicity | IC50 (CHO cells): 74 µM
